{"source": "patent US20130158028A1", "about": "“USE OF STIMULATORS AND ACTIVATORS OF SOLUBLE GUANYLATE CYCLASE FOR TREATING SICKLE-CELL ANEMIA AND CONSERVING BLOOD SUBSTITUTES” (BAYER INTELLECTUAL PROPERTY GMBH, priority 2010, published 2013)", "origin": "cited, not measured here", "details": "repeated reports"}
{"smiles": "CN1CC(=O)N2[C@H](c3ccc4c(c3)OCO4)c3[nH]c4ccccc4c3C[C@@H]2C1=O", "note": "[tadalafil, (6R,12aR)-2,3,6,7,12,12a-hexahydro-2-methyl-6-(3,4-methylenedioxyphenyl)pyrazino (1′,2′:1,6) pyrido(3,4-b)indole-1,4-dione]", "values": [{"measurement": "incidence of back pain", "value": "increased incidence of back pain"}]}
